Values after ≈ are worked out from the molar mass of the structure shown. Read-outs that look alike come from different tables or passages of the source.
Key:
[1] = tested on: Bacteroides fragilis; test: MIC, agar dilution test (Multipoint-Inokulator Denley, Isosensitest-Agar); format: cell-based
[2] = tested on: Bact. thetaiotaomicron; test: as above; format: cell-based; settings: Bacteroides thetaiotaomicron, DSM2079, Stamm DSM 2079, read-out: MHK-Werte
[3] = tested on: Staphylococcus aureus; test: Efficacy in Staph. aureus infection of the mouse; format: in vivo, Maus; settings: mouse infected with Staphylococcus aureus
[4] = tested on: Clostridium perfringens; test: microbe, parasite or virus in culture; format: cell-based; settings: read-out: MHK-Werte
[5] = DSM2151, Stamm DSM 2151, Isosensitest-Agar, read-out: MHK-Werte
[6] = Stamm ES 25, Isosensitest-Agar, read-out: MHK-Werte

Q: Which results are given for `O=C(O)c1cn(C2CC2)c2c(Cl)c(N3C[C@@H]4CCCN[C@@H]4C3)c(F)cc2c1=O` [A, 8-Chlor-1-cyclopropyl-7-([S,S]-2,8-diazabicyclo[4.3.0]non-8-yl)-6-fluor-1,4-dihydro-4-oxo-3-chinolincarbonsäure]?
A: MIC [1, 5]: 0.25 µg/mL (≈ 0.616 µM); MIC [1, 6]: 0.25 µg/mL (≈ 0.616 µM); MIC [2]: 0.5 µg/mL (≈ 1.23 µM)

Q: `CC(=O)CCN1CCO[C@H]2CN(c3c(F)cc4c(=O)c(C(=O)O)cn(C5CC5)c4c3F)C[C@H]21` (racemic) [Beispiel 31, 1-Cyclopropyl-6,8-difluor-1,4-dihydro-4-oxo-7-(cis-5-[3-oxo-1-butyl]-2-oxa-5,8-diazabicyclo[4.3.0]non-8-yl)-3-chinolincarbonsäure] was tested. Which “Wirksamkeit in der Staph. aureus-Infektion an der Maus” value (“Wirksamkeit” for short) ([3]; p.o.) did it give?
A: 10 mg/kg

Q: And the “Wirksamkeit” value ([3]; s.c.)?
A: 10 mg/kg

Q: `CC(=O)CCN1CCC[C@H]2CN(c3c(F)cc4c(=O)c(C(=O)O)cn(C5CC5)c4c3F)C[C@H]21` [Beispiel 27, 1-Cyclopropyl-6,8-difluor-1,4-dihydro-4-oxo-7-([S,S]-2-[3-oxo-1-butyl]-2,8-diazabicyclo[4.3.0]non-8-yl)-3-chinolincarbonsäure] was tested. Which “Wirksamkeit” value ([3]; p.o.) did it give?
A: 10 mg/kg

Q: What about the “Wirksamkeit” value ([3]; s.c.) of the same compound?
A: 2,5 mg/kg

Q: What does the source list for `CC(=O)CCN1CCC[C@H]2CN(c3c(F)cc4c(=O)c(C(=O)O)cn(C5CC5)c4c3Cl)C[C@H]21` [Beispiel 29A, 8-Chlor-1-cyclopropyl-6-fluor-1,4-dihydro-4-oxo-7-([S,S]-2-[3-oxo-1-butyl]-2,8-diazabicyclo[4.3.0]non-8-yl)-3-chinolincarbonsäure]?
A: Wirksamkeit in der Staph. aureus-Infektion an der Maus ([3]; p.o.): 5 mg/kg; Wirksamkeit in der Staph. aureus-Infektion an der Maus ([3]; s.c.): 5 mg/kg

Q: `N#CCCN1CCC[C@H]2CN(c3c(F)cc4c(=O)c(C(=O)O)cn(C5CC5)c4c3Cl)C[C@H]21` [Beispiel 33, 8-Chlor-7-([S,S]-2-[2-cyanoethyl]-2,8-diazabicyclo[4.3.0]non-8-yl)-1-cyclopropyl-6-fluor-1,4-dihydro-4-oxo-3-chinolincarbonsäure] was tested. Which “Wirksamkeit” value ([3]; p.o.) did it give?
A: 10 mg/kg

Q: What about the “Wirksamkeit” value ([3]; s.c.) of the same compound?
A: 5 mg/kg

Q: What does the source list for `CN1CCC2CN(c3c(F)cc4c(=O)c(C(=O)O)cn(C5CC5)c4c3Cl)CC21` (stereo not shown) [B]?
A: MIC [4]: 0.5 µg/mL (≈ 1.23 µM); MIC [1, 5]: 0.5 µg/mL (≈ 1.23 µM); MIC [1, 6]: 1 µg/mL (≈ 2.46 µM); MIC [2]: 2 µg/mL (≈ 4.93 µM)

Q: What does the source list for `COC(=O)C=C(C(=O)OC)N1CCC[C@H]2CN(c3c(F)cc4c(=O)c(C(=O)O)cn(C5CC5)c4c3Cl)C[C@H]21` [Beispiel 35, 8-Chlor-1-cyclopropyl-7-[2-(1,2-bis-methoxycarbonyl-vinyl)-1S,6S-2,8-diazabicyclo[4.3.0]non-8-yl]-6-fluor-1,4-dihydro-4-oxo-3-chinolincarbonsäure]?
A: Wirksamkeit in der Staph. aureus-Infektion an der Maus ([3]; p.o.): 2,5 mg/kg; Wirksamkeit in der Staph. aureus-Infektion an der Maus ([3]; s.c.): 2,5 mg/kg

Q: For `O=C(O)c1cn(C2CC2)c2cc(N3CCNCC3)c(F)cc2c1=O` [Ciprofloxacin], which MIC ([1]; DSM2151, read-out: MHK-Werte) is on record?
A: 4 µg/mL (≈ 12.1 µM)

Q: What about the MIC ([1]; read-out: MHK-Werte) of the same compound?
A: 8 µg/mL (≈ 24.1 µM)

Q: And the “Wirksamkeit” value ([3]; p.o.)?
A: 80 mg/kg

Q: And the “Wirksamkeit” value ([3]; s.c.)?
A: 80 mg/kg

Q: What about the MIC [2] of the same compound?
A: 8 µg/mL (≈ 24.1 µM)

— patent publication EP0550903A1, “Quinolone- and naphthyridone carboxylic acid derivatives as antibacterial agents” (BAYER AG, priority 1992, dated 1993)
